Measured values reported in the NIST ThermoML archive (doi:10.1021/acs.jced.6b00269).

Settings: for viscosity / mass density: 101.33 kPa, Liquid; for viscosity: Cone and plate viscometry; for mass density: Vibrating tube method; for Normal melting temperature: Crystal, DTA; for Glass transition temperature: DSC

CCCCCCC[P+](CC)(CC)CC.O=[N+]([O-])c1cn[n-]c1 [triethylheptylphosphonium 4-nitropyrazolide]
Settings	Glass transition temperature [°C]	Normal melting temperature [°C]	mass density [kg/m3]	viscosity [mPa·s]
–	-72	16	–	–
278.15 K	–	–	–	1000
283.15 K	–	–	1047.1	657
288.15 K	–	–	1044	443
293.15 K	–	–	1040.9	309
295.15 K	–	–	1039.7	–
298.15 K	–	–	1037.8	223
303.15 K	–	–	1034.8	165
308.15 K	–	–	1031.8	126
313.15 K	–	–	1028.8	97
318.15 K	–	–	1026	77
323.15 K	–	–	1023.1	62
328.15 K	–	–	1020.2	–
333.15 K	–	–	1017.3	–
338.15 K	–	–	1014.5	–
343.15 K	–	–	1011.6	–
348.15 K	–	–	1008.8	–
353.15 K	–	–	1006	–

CCCCCCn1cc[n+](C)c1.N#Cc1ccc[n-]1 [1-hexyl-3-methylimidazolium 2-cyanopyrrolide]
Settings	Glass transition temperature [°C]	mass density [kg/m3]	viscosity [mPa·s]
–	-65	–	–
278.15 K	–	–	1540
283.15 K	–	1031	902
288.15 K	–	1027.9	553
293.15 K	–	1024.9	355
295.15 K	–	1023.6	–
298.15 K	–	1021.8	239
303.15 K	–	1018.8	167
308.15 K	–	1015.8	122
313.15 K	–	1012.8	91
318.15 K	–	1009.9	70
323.15 K	–	1006.9	55
328.15 K	–	1003.9	–
333.15 K	–	1001	–
338.15 K	–	998	–
343.15 K	–	995.1	–
348.15 K	–	992.1	–
353.15 K	–	989.1	–

Cc1n(C2CCCC2)cc[n+]1C.O=[N+]([O-])c1cn[n-]c1 [1-cyclopentyl-2,3-dimethylimidazolium 4-nitropyrazolide]
Settings	Normal melting temperature [°C]
–	92

CCCCCCCCCCCCCC[P+](CCCCCC)(CCCCCC)CCCCCC.Clc1nc[n-]c1Cl [trihexyl(tetradecyl)phosphonium 4,5-dichloroimidazolide]
Settings	Glass transition temperature [°C]	mass density [kg/m3]	viscosity [mPa·s]
–	-64	–	–
278.15 K	–	–	4040
283.15 K	–	974.1	2580
288.15 K	–	970.8	1680
293.15 K	–	967.5	1140
295.15 K	–	966.2	–
298.15 K	–	964.4	789
303.15 K	–	961.3	566
308.15 K	–	958.3	415
313.15 K	–	955.2	308
318.15 K	–	952.2	234
323.15 K	–	949.1	182
328.15 K	–	946.2	144
333.15 K	–	943.2	116
338.15 K	–	940.2	–
343.15 K	–	937.2	–
348.15 K	–	934.2	–
353.15 K	–	931.3	–

CC[P+](CC)(CC)C1CCCC1.O=[N+]([O-])c1cn[n-]c1 [cyclopentyltriethylphosphonium 4-nitropyrazolide]
Settings	Normal melting temperature [°C]
–	51

CC[P+](CC)(CC)COCCOC.O=[N+]([O-])c1cn[n-]c1
Settings	Glass transition temperature [°C]	Normal melting temperature [°C]	mass density [kg/m3]	viscosity [mPa·s]
–	-76	-15	–	–
278.15 K	–	–	–	309
283.15 K	–	–	1149.2	216
288.15 K	–	–	1145.8	156
293.15 K	–	–	1142.4	116
295.15 K	–	–	1141	–
298.15 K	–	–	1139	88
303.15 K	–	–	1135.6	69
308.15 K	–	–	1132.2	55
313.15 K	–	–	1128.9	–
318.15 K	–	–	1125.5	–
323.15 K	–	–	1122.2	–
328.15 K	–	–	1118.9	–
333.15 K	–	–	1115.6	–
338.15 K	–	–	1112.3	–
343.15 K	–	–	1109.1	–
348.15 K	–	–	1105.8	–
353.15 K	–	–	1102.6	–

CCCCCC[n+]1ccn(C)c1.O=S(=O)([N-]S(=O)(=O)C(F)(F)F)C(F)(F)F
Settings	mass density [kg/m3]	viscosity [mPa·s]
278.15 K	–	203
283.15 K	1386.6	150
288.15 K	1382.1	113
293.15 K	1377.5	87
295.15 K	1375.7	–
298.15 K	1372.9	68
303.15 K	1368.4	55
308.15 K	1363.8	–
313.15 K	1359.3	–
318.15 K	1354.8	–
323.15 K	1350.3	–
328.15 K	1345.8	–
333.15 K	1341.3	–
338.15 K	1336.8	–
343.15 K	1332.4	–
348.15 K	1327.9	–
353.15 K	1323.5	–

CCCC[S+]1CCCCC1.O=S(=O)([N-]S(=O)(=O)C(F)(F)F)C(F)(F)F [1-butylthianium bis(trifluoromethylsulfonyl)imide]
Settings	Glass transition temperature [°C]	Normal melting temperature [°C]	viscosity [mPa·s]
–	-82	-10	–
278.15 K	–	–	398
283.15 K	–	–	279
288.15 K	–	–	200
293.15 K	–	–	148
298.15 K	–	–	112
303.15 K	–	–	88
308.15 K	–	–	70
313.15 K	–	–	57
